A word on the IC50: it is the concentration that inhibits the measured activity by half. Broadly, the Kd is the constant that tells how readily two partners part at equilibrium.

The source of these data is US8946216B2, “Indazole derivatives useful as ERK inhibitors” (Merck Sharp & Dohme Corp., priority 2010, dated 2015).

Experiment [1] deals with unphosphorylated Mouse ERK2 protein (inactive ERK2) (Mus musculus, UniProt P63085). Nature of the experiment: Coupled ERK2 (cERK) assay, coupled MEK1/ERK2 IMAP. As to conditions: 30 min preincubation with inactive ERK2, then activation by human MEK1; 30 μM ATP; fluorescence polarization; read-out: cERK2 IC50. The format is biochemical. Put shortly:
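Compound was preincubated with 0.4 ng unphosphorylated mouse ERK2 in Tris pH 7.2/MgCl2/DTT buffer (6.7% DMSO). ERK2 was then activated for 1 h by 2 ng active human MEK1 with 4 μM IMAP substrate peptide (100 nM fluorescein-labelled) and 30 μM ATP (final, 4% DMSO). Phosphorylation was read by IMAP bead fluorescence polarization after 30 min binding.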
A general note: Polarisation of emitted light reports the rotation of a fluorescent probe.

Experiment [2] has as its target fully phosphorylated, active Mouse ERK2 protein (Mus musculus, UniProt P63085). Nature of the experiment: Active ERK2 (aERK) assay, IMAP format. The experiment is classed as biochemical. The note with it: 30 min preincubation; 1 μM substrate peptide, 30 μM ATP; fluorescence polarization; read-out: aERK2 IC50. The method, then: Active ERK2 (aERK) Assay:
Activated ERK2 activity was also determined in the IMAP assay format using the procedure outlined above. 1 μl of 25× compound was added to 14 μl of kinase buffer containing 0.25 ng fully phosphorylated, active Mouse ERK2 protein. Following a 30 minute incubation, the reactions were initiated by addition of 10 μl of kinase buffer containing 1 μM ERK2 IMAP substrate peptide (0.9 μM unlabeled IPTTPITTTYFFFK--CONH2 and 100 nM IPTTPITTTYFFFK(5-carboxyfluorescein)-CONH2) and 30 μM ATP. Reactions proceeded for 30 minutes before termination by addition of 60 μl IMAP detection beads in binding buffer. Plates were read as above after 30 minute binding equilibration. Active compounds were reconfirmed in an independent assay.

The target in the next experiment is ERK protein (Homo sapiens, UniProt P28482). Nature of the experiment: TdF (Temperature Dependence Fluorescence, thermal shift) assay for ERK. The note with it: read-out: TdF Kd; 3 μM ERK protein, 15, 50 or 100 μM compound, Sypro Orange; Kd calculated from ΔTm; uncertainty estimated ±50%. The format is binding. Put shortly:
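Thermal shift with Sypro Orange: samples containing 3 μM in 2% final DMSO heated 30 to 90 °C at 1 °C/min, fluorescence at ex 490/em 560 nm. Kd derived from ΔTm versus protein alone by the Brandts–Lin model, with ΔCpL set to 0 and ΔHL to −7 kcal/mol; uncertainty ±50%.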

fully phosphorylated, active Mouse ERK2 protein, sequence (P63085 whole entry): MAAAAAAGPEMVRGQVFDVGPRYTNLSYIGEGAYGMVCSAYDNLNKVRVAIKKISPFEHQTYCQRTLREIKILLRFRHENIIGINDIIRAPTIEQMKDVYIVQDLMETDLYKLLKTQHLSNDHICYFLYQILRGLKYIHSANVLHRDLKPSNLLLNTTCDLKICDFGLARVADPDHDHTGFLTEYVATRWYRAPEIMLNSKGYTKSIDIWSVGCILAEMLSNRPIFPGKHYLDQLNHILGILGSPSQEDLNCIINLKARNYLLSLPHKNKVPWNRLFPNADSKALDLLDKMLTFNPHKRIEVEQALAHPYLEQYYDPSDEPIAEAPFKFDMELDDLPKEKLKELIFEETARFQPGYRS
unphosphorylated Mouse ERK2 protein (inactive ERK2), sequence (P63085 whole entry): as above
ERK protein, sequence (P28482 2-360): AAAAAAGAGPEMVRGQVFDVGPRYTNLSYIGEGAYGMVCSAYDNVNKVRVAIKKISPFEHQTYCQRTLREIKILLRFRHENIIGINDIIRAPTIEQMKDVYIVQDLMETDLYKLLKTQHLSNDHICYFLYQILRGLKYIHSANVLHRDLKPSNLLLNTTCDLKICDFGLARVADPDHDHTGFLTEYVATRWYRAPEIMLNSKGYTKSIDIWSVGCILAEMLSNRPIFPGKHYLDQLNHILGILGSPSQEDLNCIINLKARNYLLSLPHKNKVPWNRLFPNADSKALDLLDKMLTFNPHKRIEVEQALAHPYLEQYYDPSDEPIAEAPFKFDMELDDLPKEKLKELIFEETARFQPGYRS

`O=C(Nc1ccc2[nH]nc(-c3ccncc3)c2c1)C1CN(Cc2c(F)ccc(F)c2Cl)CCO1` (stereo not drawn) [Compound 48, 4-[(2-CHLORO-3,6-DIFLUOROPHENYL)METHYL]-N-[3-(4-PYRIDINYL)-1H-INDAZOL-5-YL]-2-MORPHOLINECARBOXAMIDE]: the IC50 was found to be 909 nM in experiment [1] and 371 nM in experiment [2]. In addition, the equilibrium dissociation constant (Kd) at ERK protein is 202 nM.
On to `O=C(Nc1ccc2[nH]nc(-c3ccncc3)c2c1)C1CN(Cc2cc(Cl)cc(Cl)c2)CCO1` (stereo not drawn) [Compound 50, 4-[(3,5-DICHLOROPHENYL)METHYL]-N-[3-(4-PYRIDINYL)-1H-INDAZOL-5-YL]-2-MORPHOLINECARBOXAMIDE], for which the IC50 in experiment [1] was 8840 nM; in experiment [2], 8680 nM. For the same compound, the Kd at ERK protein was 500 nM.
Consider `O=C(Nc1ccc2[nH]nc(-c3ccncc3)c2c1)C1CNCCC1c1ccc(F)cc1` (stereo not drawn) [Compound 52, 4-(4-FLUOROPHENYL)-N-(3-(PYRIDIN-4-YL)-1H-INDAZOL-5-YL)PIPERIDINE-3-CARBOXAMIDE], for which the IC50 in experiment [1] came to 60.8 nM; in experiment [2], 56.5 nM. For the same compound, the Kd at ERK protein was 18 nM.
Consider `O=C(Nc1ccc2[nH]nc(-c3ccncc3)c2c1)C1CNCCC1c1ccccc1` (stereo not drawn) [Compound 53, 4-PHENYL-N-[3-(4-PYRIDINYL)-1H-INDAZOL-5-YL]-3-PIPERIDINECARBOXAMIDE], for which the IC50 in experiment [1] came to 69.5 nM; in experiment [2] it was 102 nM. Moreover, the equilibrium dissociation constant (Kd) at ERK protein is 70 nM.
As for `N#Cc1ccccc1N1CCCC(C(=O)Nc2ccc3[nH]nc(-c4ccncc4)c3c2)C1` (stereo not drawn) [Compound 55, 1-(2-CYANOPHENYL)-N-[3-(4-PYRIDINYL)-1H-INDAZOL-5-YL]-3-PIPERIDINECARBOXAMIDE], the IC50 in experiment [1] was 91.5 nM; in experiment [2], 82.3 nM. For the same compound, the Kd on ERK protein is 23 nM.
Consider `O=C(Nc1ccc2[nH]nc(-c3ccncc3)c2c1)C1CCCN(C(=O)c2ccccc2)C1` (stereo not drawn) [Compound 56, 1-BENZOYL-N-[3-(4-PYRIDINYL)-1H-INDAZOL-5-YL]-3-PIPERIDINECARBOXAMIDE], for which the IC50 stood at 150 nM in experiment [1] and 553 nM in experiment [2]. At ERK protein, the Kd was 420 nM.
As for `O=C(Nc1ccc2[nH]nc(-c3ccncc3)c2c1)[C@@H]1CN(Cc2ccccc2)CCN1` [Compound 57, 4-(PHENYLMETHYL)-N-[3-(4-PYRIDINYL)-1H-INDAZOL-5-YL]-2(S)-PIPERAZINECARBOXAMIDE], the half-inhibitory concentration (IC50) was determined as 61.8 nM in experiment [1] and 52 nM in experiment [2]. For the same compound, the dissociation constant Kd at ERK protein is 49 nM.
Turning to `O=C(Nc1ccc2[nH]nc(-c3ccncc3)c2c1)C1CN(C(=O)OCc2ccccc2)CCN1` (stereo not drawn) [Compound 58, PHENYLMETHYL 3-[[[3-(4-PYRIDINYL)-1H-INDAZOL-5-YL]AMINO]CARBONYL]-1-PIPERAZINECARBOXYLATE], the IC50 in experiment [1] worked out at 960 nM; in experiment [2], 2200 nM. The Kd on ERK protein is 602 nM.
`O=C(Nc1ccc2[nH]nc(-c3ccncc3)c2c1)[C@H]1CN(Cc2ccccc2)CCN1` [Compound 59, 4-(PHENYLMETHYL)-N-[3-(4-PYRIDINYL)-1H-INDAZOL-5-YL]-2(R)-PIPERAZINECARBOXAMIDE]: the results for the concentration for half-maximal inhibition (IC50) in experiment [1] and in experiment [2] were 21.6 nM and 16.3 nM, respectively. Moreover, on ERK protein, the Kd is 21 nM.
With `O=C(Nc1ccc2[nH]nc(-c3ccncc3)c2c1)[C@@H]1CN(Cc2ccccc2F)CCS1` [Compound 60, 4-[(2-FLUOROPHENYL)METHYL]-N-[3-(4-PYRIDINYL)-1H-INDAZOL-5-YL]-2(S)-THIOMORPHOLINECARBOXAMIDE], the results for the IC50 in experiment [1] and in experiment [2] were 72.3 nM and 175 nM, respectively. Also, the Kd on ERK protein is 6 nM.
In the case of `O=C(Nc1ccc2[nH]nc(-c3ccncc3)c2c1)[C@H]1CN(Cc2ccccc2F)CCS1` [Compound 61, 4-[(2-FLUOROPHENYL)METHYL]-N-[3-(4-PYRIDINYL)-1H-INDAZOL-5-YL]-2(R)-THIOMORPHOLINECARBOXAMIDE], the IC50 in experiment [1] amounted to 19.9 nM; in experiment [2], 8.1 nM. The equilibrium dissociation constant (Kd) at ERK protein is 5 nM.
Turning to `CSC1(C(=O)Nc2ccc3[nH]nc(-c4ccncc4)c3c2)CCN(Cc2ccccc2F)C1` (stereo not drawn) [Compound 63, 1-[(2-FLUOROPHENYL)METHYL]-3-(METHYLTHIO)-N-[3-(4-PYRIDINYL)-1H-INDAZOL-5-YL]-3-PYRROLIDINECARBOXAMIDE], the 50% inhibitory concentration (IC50) in experiment [1] was 121 nM; in experiment [2] it was 211 nM. Further, the Kd at ERK protein was 13.5 nM.
On to `O=C(Nc1ccc2[nH]nc(-c3ccncc3)c2c1)C1CCN(Cc2ccccc2)C1` (stereo not drawn) [Compound 64, 1-(PHENYLMETHYL)-N-[3-(4-PYRIDINYL)-1H-INDAZOL-5-YL]-3-PYRROLIDINECARBOXAMIDE], for which the IC50 in experiment [1] was 171 nM; in experiment [2], 245 nM. Also, the Kd on ERK protein was 35.6 nM.
In the case of `O=C(Nc1ccc2[nH]nc(-c3ccncc3)c2c1)C1CCN(Cc2ccccc2F)C1` (stereo not drawn) [Compound 65, 1-[(2-FLUOROPHENYL)METHYL]-N-[3-(4-PYRIDINYL)-1H-INDAZOL-5-YL]-3-PYRROLIDINECARBOXAMIDE], the figures for the 50% inhibitory concentration (IC50) in experiment [1] and in experiment [2] were 77.1 nM and 100 nM, respectively. For the same compound, the Kd on ERK protein is 29.4 nM.
Taken in the same sequence, the figures for `O=C(Nc1ccc2[nH]nc(-c3ccncc3)c2c1)C1(CO)CCCN(Cc2ccccc2)C1` (stereo not drawn) [Compound 66, 3-(HYDROXYMETHYL)-1-(PHENYLMETHYL)-N-[3-(4-PYRIDINYL)-1H-INDAZOL-5-YL]-3-PIPERIDINECARBOXAMIDE] were 1000 nM, 439 nM and 104 nM.
Consider `O=C(Nc1ccc2[nH]nc(-c3ccncc3)c2c1)C1CN(Cc2ccccc2F)CC[S+]1[O-]` (stereo not drawn) [Compound 69, 4-[(2-FLUOROPHENYL)METHYL]-N-[3-(4-PYRIDINYL)-1H-INDAZOL-5-YL]-2-THIOMORPHOLINECARBOXAMIDE, 1-OXIDE], for which the IC50 in experiment [1] stood at 8.3 nM; in experiment [2], 2.7 nM. Moreover, the dissociation constant Kd at ERK protein was 4.4 nM.
For the compound `O=C(Nc1ccc2[nH]nc(-c3ccncc3)c2c1)C1CN(Cc2ccccc2F)CCS1(=O)=O` (stereo not drawn) [Compound 70, 4-[(2-FLUOROPHENYL)METHYL]-N-[3-(4-PYRIDINYL)-1H-INDAZOL-5-YL]-2-THIOMORPHOLINECARBOXAMIDE, 1,1-DIOXIDE], the IC50 worked out at 17.7 nM in experiment [1] and 13.9 nM in experiment [2]. Also, on ERK protein, the Kd is 12 nM.
On the same counts, the results for `O=C(Nc1ccc2[nH]nc(-c3ccncc3)c2c1)C1CNCC(c2ccccc2)C1` (stereo not drawn) [Compound 79, 5-PHENYL-N-[3-(4-PYRIDINYL)-1H-INDAZOL-5-YL]-3-PIPERIDINECARBOXAMIDE] are 69.4 nM, 124 nM and 8 nM.
